From patent US20240140943A1, “COMPETITIVE AND NONCOMPETITIVE INHIBITORS OF THE MUSCARINIC ACETYLCHOLINE RECEPTOR M5” (Vanderbilt University, priority 2021, published 2024)

Target: T1, human M5 receptors (hM5) (Homo sapiens, UniProt P08912)
T1 construct: expressed in transfected cells
T1 sequence (P08912 1-532): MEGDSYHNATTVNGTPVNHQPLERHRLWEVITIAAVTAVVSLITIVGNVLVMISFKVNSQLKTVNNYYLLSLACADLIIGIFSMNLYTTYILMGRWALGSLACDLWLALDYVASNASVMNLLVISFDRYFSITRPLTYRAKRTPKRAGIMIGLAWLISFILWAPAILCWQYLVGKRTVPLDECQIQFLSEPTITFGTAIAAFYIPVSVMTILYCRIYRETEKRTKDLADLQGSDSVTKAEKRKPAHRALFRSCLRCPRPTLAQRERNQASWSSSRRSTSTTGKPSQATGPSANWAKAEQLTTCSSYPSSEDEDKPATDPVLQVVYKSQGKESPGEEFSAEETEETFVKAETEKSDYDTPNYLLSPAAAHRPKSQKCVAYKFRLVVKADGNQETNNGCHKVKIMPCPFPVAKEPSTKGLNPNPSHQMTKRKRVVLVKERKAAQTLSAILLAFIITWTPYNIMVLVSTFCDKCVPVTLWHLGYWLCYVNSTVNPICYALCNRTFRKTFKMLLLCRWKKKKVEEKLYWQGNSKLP
Experiment: Cell-based functional calcium mobilization assay of mAChR M5 activity
Settings: CHO cells stably expressing hM5; for IC50: calcium mobilization, inhibition of EC80 acetylcholine response; for EC80 MIN: minimum response at EC80 acetylcholine addition, normalized to maximum acetylcholine response
Procedure: All functional cell-based assays were performed essentially as previously described (Mario et al., Mol. Pharm. 2009, 75(3), 577-588; Brady et al., J. Pharm. & Exp. Ther. 2008, 327, 941-953). Initial, single point (10 μM) compound characterization was performed in stable Chinese Hamster Ovary (CHO) cell lines constitutively expressing human M5 receptors. These were plated at 15,000 cells per 20 μL per well in Greiner 384-well black-walled, TC-treated, clear-bottomed plates (Fisher) in Ham's F12 medium supplemented with 10% FBS and 20 mM HEPES. Cells were incubated overnight at 37° C. under 5% CO2. The following day, medium was exchanged with assay buffer (Hank's Balanced Salt Solution supplemented with 20 mM HEPES and 2.5 mM Probenecid, pH 7.4) leaving 20 μL of assay buffer in each well. This was followed by the addition of 20 μL of 2.3 μM of Fluo-4 AM (Invitrogen) in assay buffer (final concentration 1.15 μM). The cells were then incubated 50 minutes at 37° C. under 5% CO2. The assay buffer plus dye was then exchanged with fresh assay buffer leaving a volume of 20 μL in each well. Test compounds were diluted into assay buffer to a 2× (20 μM) concentration in 0.2% dimethylsulfoxide (DMSO) in columns 3-22 with matching DMSO concentration in columns 1, 2, 23, and […]; compounds were added to the assay for a final concentration of 10 μM and a final DMSO concentration of 0.1%. Acetylcholine (Sigma-Aldrich) was prepared to provide 5× concentrations of EC20, EC80, and ECmax in the triple-addition assay, providing a signal window to view agonism, potentiation, and inhibition of the acetylcholine response as well as a means to normalize to the maximum acetylcholine response.
Either an FDSS (Hamamatsu) or Panoptic (WaveFront Biosciences) kinetic imaging plate reader was used for assay execution and measurement of calcium flux. After establishing baseline fluorescence, test compounds (20 μL) were added to the cells using the reader's integrated pipettor and allowed to equilibrate for 140 seconds before addition of the EC20 concentration of acetylcholine (10 μL) along with vehicle in selected DMSO-only wells in the outer two columns. The EC80 concentration of acetylcholine (10 μL) was added 125 seconds after the EC20 addition along with ECmax concentration in the wells receiving vehicle in the second addition. The raw fluorescence data from each well was normalized to the corresponding initial fluorescence reading (static ratio). The maximum fluorescence value following each addition was determined and the minimum value within that same timeframe was subtracted for each well then normalized to the average of the ECmax maximum-minimum response, providing a % AChmax value for each addition for each well. The single point values represent mean values determined within the EC80 addition timeframe obtained from at least three independent determinations performed in triplicate or greater (error bars represent +/−SEM) unless otherwise specified.
Further characterization of test compounds (compound potency and mAChR subtype-selectivity) was performed on the FDSS with calcium mobilization assays performed as previously described (Mario et al., 2009; Brady et al., 2008) and in a format similar to that described above using the same reagents. CHO cells stably expressing hM1, hM2/Gqi5, hM3, hM4/Gqi5, hM5, rM1, rM2/Gqi5, rM3, rM4/Gqi5, or rM5 were plated in the manner described above. A ten-point concentration range of test compound was serial diluted in assay buffer to 2× final concentration and acetylcholine was diluted in assay buffer to 5× of the EC20 and EC80 concentrations, determined empirically and 5× maximal (2 mM final concentration) stock concentrations. FDSS protocols were carried out as described above; the static ratio was calculated and the minimum response subtracted from the maximum response within the timeframe of each addition. This max-min response was then normalized to the maximum acetylcholine response. […]

IC50	EC80 MIN	Structure (SMILES)
33 nM	2%	Cc1nnc(S(=O)(=O)[C@H]2CC[C@H](c3cn4ncnc4cc3Cl)CC2)n1C [Compound 3, trans-7-chloro-6-(4-((4,5-dimethyl-4H-1,2,4-triazol-3-yl)sulfonyl)cyclohexyl)-[1,2,4]triazolo[1,5-a]pyridine]
532 nM	3%	Cc1nnc(S(=O)(=O)[C@H]2CC[C@H](c3cn4ncnc4cc3Cl)CC2)o1 [Compound 2, trans-2-((4-(7-chloro-[1,2,4]triazolo[1,5-a]pyridin-6-yl)cyclohexyl)sulfonyl)-5-methyl-1,3,4-oxadiazole]
185 nM	3%	Cc1nnc(S(=O)(=O)[C@H]2CC[C@H](c3cn4ncnc4cc3Cl)CC2)s1 [Compound 1, trans-2-((4-(7-chloro-[1,2,4]triazolo[1,5-a]pyridin-6-yl)cyclohexyl)sulfonyl)-5-methyl-1,3,4-thiadiazole]
> 10000 nM	55%	Cc1nnc(S(=O)(=O)[C@H]2CC[C@@H](c3cn4ncnc4cc3C)CC2)o1 [Compound 4, cis-2-methyl-5-((4-(7-methyl-[1,2,4]triazolo[1,5-a]pyridin-6-yl)cyclohexyl)sulfonyl)-1,3,4-oxadiazole]
